The subject of assay [1] is bronchial tubes. As to the kind of experiment: Inhibition of histamine contraction of bronchial tubes (relaxation of bronchial tubes). The settings on record: Cavia porcellus; guinea pig bronchial tube, 10 μM histamine; Table 16; read-out: ED50 (50% decrease of histamine contraction of bronchial tubes). The protocol: 3. Inhibition of Histamine Contraction of Bronchial Tubes (Relaxation of Bronchial Tubes)
That is, a bronchial tube sample taken from a guinea pig was suspended in the 20-ml bath filled with Krebs-Henseleit nutrient solution and maintained at a temperature of 37° C. To the bath was added histamine so that the histamine concentration became 10 μM, causing the bronchial tube sample to contract. After the contraction became stable, the compounds of the present invention were added cumulatively to the bath to observe relaxation of the bronchial tube sample.
The effect of the compounds of the present invention on relaxation of bronchial tubes was examined according to the method as mentioned hereinbefore.

Assay [2] has as its system mesenteric artery. As to the kind of experiment: Relaxation of mesenteric artery (KCl-contracted). The note with it: Oryctolagus cuniculus; rabbit mesenteric artery contracted with 15 to 20 mM KCl; read-out: ED50 (concentration attaining 50% of complete relaxation). The protocol:
1. Relaxation of Mesenteric Artery
A rabbit of Japanese local variety weighing about 3 kg was bled to death. Then, the abdomen of the rabbit was dissected to locate a mesenteric artery. […] Thus, shrinking and relaxation of the artery could be measured as a load on the transducer. To the organ bath, KCl was added so that the KCl concentration became 15 to 20 mM, causing the artery to shrink. Then, the compounds of the present invention were added to the organ bath to observe relaxation of the artery.
The effect of the compounds of the present invention on relaxation of mesenteric artery was examined according to the method as mentioned hereinbefore.

Each structure is given as a SMILES string.

On to `CCCNCC(C)CCCCN(C)S(=O)(=O)c1cccc2cnccc12` (stereo not shown) [Compound (41), N-methyl-N-(6-propylamino-5-methylhexyl)-5-isoquinolinesulfonamide], for which the EC50 in assay [1] is 22 µM; in assay [2] it was 17 µM.

Turning to `CC1CC(N)CN1S(=O)(=O)c1cccc2cnccc12` (stereo not shown) [Compound (77), 1-(5-isoquinolinesulfonyl)-3-amino-5-methylpyrrolidine], the EC50 in assay [1] stood at 32 µM; in assay [2] it was 16 µM.

On to `NC1CCN(S(=O)(=O)c2cccc3c(Cl)nccc23)C1` (stereo not shown) [Compound (101), 1-(1-chloro-5-isoquinolinesulfonyl)-3-aminopyrrolidine], for which the EC50 in assay [1] amounted to 14 µM; in assay [2] it was 17 µM.

In the case of `CCCCCCNCCCCCCN(CCCCCC)S(=O)(=O)c1cccc2cnccc12` [Compound (35), N-(6-hexylaminohexyl)-N-hexyl-5-isoquinolinesulfonamide], the EC50 in assay [1] worked out at 25 µM; in assay [2] it was 19 µM.

As to `CCCCCN(CCCCCCNCc1ccccc1)S(=O)(=O)c1cccc2cnccc12` [Compound (34), N-(6-benzylaminohexyl)-N-pentyl-5-isoquinolinesulfonamide], the EC50 in assay [1] was found to be 21 µM; in assay [2] it was 20 µM.

Regarding `NC1CCN(S(=O)(=O)c2cccc3c(O)nccc23)CC1` [Compound (79), 1-(1-hydroxy-5-isoquinolinesulfonyl)-4-aminopiperidine], the EC50 stood at 13 µM in assay [1] and 15 µM in assay [2].

With `CCCCCCCCN(CCN)S(=O)(=O)c1cccc2cnccc12` [Compound (5), N-(2-aminoethyl)-N-octyl-5-isoquinolinesulfonamide], the EC50 in assay [1] is 6 µM; in assay [2] it was 2 µM.

For the compound `O=S(=O)(c1cccc2cnccc12)N1CCC(Nc2ccccc2)CC1` [Compound (58), 1-(5-isoquinolinesulfonyl)-4-phenylaminopiperidine], the EC50 came to 25 µM in assay [1] and 20 µM in assay [2].

For `CCNC1CCN(S(=O)(=O)c2cccc3cnccc23)CC1` [Compound (53), 1-(5-isoquinolinesulfonyl)-4-ethylaminopiperidine], the EC50 in assay [1] worked out at 11 µM; in assay [2] it was 14 µM.

As to `CCCCCCN(C(CCC)CCCN)S(=O)(=O)c1cccc2cnccc12` (stereo not shown) [Compound (24), N-(4-amino-1-propylbutyl)-N-hexyl-5-isoquinolinesulfonamide], the EC50 in assay [1] came out at 17 µM; in assay [2], 23 µM.

With `O=S(=O)(c1cccc2cnccc12)N(CCNCc1ccccc1)Cc1ccccc1` [Compound (30), N-(2-benzylaminoethyl)-N-benzyl-5-isoquinolinesulfonamide], the EC50 in assay [1] and in assay [2] was 12 µM in each case.

As to `O=S(=O)(c1cccc2cnccc12)N1CCCC(NCCc2ccccc2)C1` (stereo not shown) [Compound (70), 1-(5-isoquinolinesulfonyl)-3-phenethylaminopiperidine], the EC50 stood at 13 µM in assay [1] and 7 µM in assay [2].

Turning to `CCCNC1CCCN(S(=O)(=O)c2cccc3cnccc23)C1` (stereo not shown) [Compound (66), 1-(5-isoquinolinesulfonyl)-3-propylaminopiperidine], the values for the EC50 in assay [1] and in assay [2] were 8 µM and 5 µM, respectively.

As to `CCCCN(CCNCCc1ccccc1)S(=O)(=O)c1cccc2cnccc12` [Compound (31), N-butyl-N-(2-phenylethylaminoethyl)-5-isoquinolinesulfonamide], the results for the EC50 in assay [1] and in assay [2] were 15 µM and 10 µM, respectively.

`CCCCCCN(CC(C)NCC)S(=O)(=O)c1cccc2cnccc12` (stereo not shown) [Compound (36), N-(2-ethylaminopropyl)-N-hexyl-5-isoquinolinesulfonamide]: the EC50 in assay [1] turned out to be 30 µM; in assay [2] it was 7 µM.

Take `CCNCCN(CC)S(=O)(=O)c1cccc2cnccc12` [Compound (26), N-(2-ethylaminoethyl)-N-ethyl-5-isoquniolinesulfonamide]: the EC50 in assay [1] is 8 µM; in assay [2], 11 µM.

`CCCCN(C(C)C(C)N)S(=O)(=O)c1cccc2cnccc12` (stereo not shown) [Compound (16), N-(2-amino-1-methylpropyl)-N-butyl-5-isoquinolinesulfonamide]: the EC50 in assay [1] and in assay [2] was 13 µM in each case.

Consider `CCCCCCN(CC(C)N)S(=O)(=O)c1cccc2cnccc12` (stereo not shown) [Compound (11), N-(2-aminopropyl)-N-hexyl-5-isoquinolinesulfonamide], for which the EC50 came out at 9 µM in assay [1] and 3 µM in assay [2].

Consider `O=S(=O)(c1cccc2cnccc12)N1CCC(N2CCCCC2)CC1` [Compound (62), 1-(5-isoquinolinesulfonyl)-4-piperidinopiperidine], for which the EC50 in assay [1] is 23 µM; in assay [2], 22 µM.

`O=S(=O)(c1cccc2cnccc12)N1CCCC(NCc2ccccc2)C1` (stereo not shown) [Compound (69), 1-(5-isoquinolinesulfonyl)-3-benzylaminopiperidine]: the EC50 in assay [1] amounted to 14 µM; in assay [2], 8 µM.

Regarding `CCCCCCN(CCNCCCC)S(=O)(=O)c1cccc2cnccc12` [Compound (27), N-(2-butylaminoethyl)-N-hexyl-5-isoquinolinesulfonamide], the EC50 in assay [1] and in assay [2] was 13 µM throughout.

Take `CCCCCCNC1CCCN(S(=O)(=O)c2cccc3c(Cl)nccc23)C1` (stereo not shown) [Compound (98), 1-(1-chloro-5-isoquinolinesulfonyl)-3-hexylaminopiperidine]: the EC50 in assay [1] and in assay [2] was 13 µM in each case.

With `CNC1CCN(S(=O)(=O)c2cccc3c(O)nccc23)CC1` [Compound (80), 1-(1-hydroxy-5-isoquinolinesulfonyl)-4-methylaminopiperidine], the values for the EC50 in assay [1] and in assay [2] were 16 µM and 14 µM, respectively.

For the compound `CCCN(C(CN)C(C)C)S(=O)(=O)c1cccc2cnccc12` (stereo not shown) [Compound (18), N-(1-aminomethyl-2-methylpropyl)-N-propyl-5-isoquinolinesulfonamide], the EC50 in assay [1] and in assay [2] was 13 µM throughout.

As to `CNC1CCN(S(=O)(=O)c2cccc3cnccc23)CC1` [Compound (52), 1-(5-isoquinolinesulfonyl)-4-methylaminopiperidine], the EC50 was determined as 12 µM in assay [1] and 14 µM in assay [2].

For `CCCCCCN(C(C)CNC(C)C)S(=O)(=O)c1cccc2cnccc12` (stereo not shown) [(39), N-hexyl-N-(2-isopropylamino-1-methylethyl)-5-isoquinolinesulfonamide], the EC50 in assay [1] was 20 µM; in assay [2], 11 µM.

As to `O=S(=O)(c1cccc2c(Cl)nccc12)N1CCC(NCc2ccccc2)CC1` [Compound (95), 1-(1-chloro-5-isoquinolinesulfonyl)-4-benzylaminopiperidine], the EC50 in assay [1] was determined as 18 µM; in assay [2] it was 14 µM.

Regarding `NC1CCN(S(=O)(=O)c2cccc3cnccc23)CC1` [Compound (51), 1-(5-isoquinolinesulfonyl)-4-aminopiperidine], the EC50 is 8 µM in assay [1] and 15 µM in assay [2].

On to `O=S(=O)(c1cccc2c(O)nccc12)N1CCC(NCc2ccccc2)CC1` [Compound (83), 1-(1-hydroxy-5-isoquinolinesulfonyl)-4-benzylaminopiperidine], for which the figures for the EC50 in assay [1] and in assay [2] were 19 µM and 18 µM, respectively.

As to `CCCN(CC(C)CN)S(=O)(=O)c1cccc2cnccc12` (stereo not shown) [Compound (20), N-(3-amino-2-methylpropyl)-N-propyl-5-isoquinolinesulfonamide], the EC50 stood at 15 µM in assay [1] and 17 µM in assay [2].

Take `CCCCCCCCC(N)CN(CCC)S(=O)(=O)c1cccc2cnccc12` (stereo not shown) [Compound (14), N-(2-aminodecyl)-N-propyl-5-isoquinolinesulfonamide]: the EC50 in assay [1] amounted to 22 µM; in assay [2], 10 µM.

Take `CNC1CCN(S(=O)(=O)c2cccc3cnccc23)C1` (stereo not shown) [Compound (76), 1-(5-isoquinolinesulfonyl)-3-methylaminopyrrolidine]: the EC50 in assay [1] worked out at 27 µM; in assay [2] it was 13 µM.

In the case of `CNCCN(C)S(=O)(=O)c1cccc2cnccc12` [Compound (25), N-(2-methylaminoethyl)-N-methyl-5-isoquinolinesulfonamide], the EC50 in assay [1] and in assay [2] was 10 µM throughout.

For `CN(C)C1CCCN(S(=O)(=O)c2cccc3cnccc23)C1` (stereo not shown) [Compound (73), 1-(5-isoquinolinesulfonyl)-3-dimethylaminopiperidine], the EC50 in assay [1] was 26 µM; in assay [2], 19 µM.

Consider `CCCCCCN(CCN1CCOCC1)S(=O)(=O)c1cccc2cnccc12` [Compound (46), N-hexyl-N-(2-morpholinoethyl)-5-isoquinolinesulfonamide], for which the EC50 in assay [1] is 25 µM; in assay [2], 23 µM.

As to `CCCNC1CCCN(S(=O)(=O)c2cccc3c(O)nccc23)C1` (stereo not shown) [Compound (85), 1-(1-hydroxy-5-isoquinolinesulfonyl)-3-propylaminopiperidine], the EC50 in assay [1] was found to be 11 µM; in assay [2], 13 µM.

On to `CCCCNC1CCN(S(=O)(=O)c2cccc3cnccc23)CC1` [Compound (56), 1-(5-isoquinolinesulfonyl)-4-butylaminopiperidine], for which the EC50 was determined as 10 µM in assay [1] and 14 µM in assay [2].

With `CCCCCCN(CCCCCN)S(=O)(=O)c1cccc2cnccc12` [Compound (9), N-(5-aminopentyl)-N-hexyl-5-isoquinolinesulfonamide], the EC50 in assay [1] worked out at 15 µM; in assay [2] it was 9 µM.

The values are drawn from US4798897A, “Isoquinoline derivatives” (Asahi Kasei Kogyo Kabushiki Kaisha, priority 1987, dated 1989).
